The source of these data is patent US6469052B2, “Compounds for the photodecontamination of pathogens in blood” (Cerus Corporation, priority 1993, dated 2002).

The test system of data set [1] is Salmonella typhimurium TA100.
The test system of data set [2] is Salmonella typhimurium TA1538. The data set can be described thus: Ames assay (dark mutagenicity), strain TA1538.
The test system of data set [3] is Salmonella typhimurium TA98. The data set can be described thus: Ames assay (dark mutagenicity), strain TA98. The source says:
The second property that is important in testing a compound for use in methods of the present invention is mutagenicity. The most widely used mutagen/carcinogen screening assay is the Ames test. This assay is described by D. M. Maron and B. N. Ames in Mutation Research 113: 173 ( 1983) and a specific screen is described in detail in Example 17, below. The Ames test utilizes several unique strains of Salmonella typhimurium that are histidine- dependent for growth and that lack the usual DNA repair enzymes. The frequency of normal mutations that render the bacteria independent of histidine (i.e., the frequency of spontaneous revertants) is low. The test allows one to evaluate the impact of a compound on this revertant frequency.
In this example the compounds of the present invention are tested for their dark mutagenicity using an Ames assay. The procedures used for the Salmonella mutagenicity test as described in detail by Maron and Ames were followed exactly. Maron, D. M. and B. N. Ames, Mutation Research 113: 173 ( 1983). A brief description for each procedure is given here. The tester strains TA97a, TA98, TA100, TA102, TA1537 and TA1538 were obtained from Dr. Ames. TA97a, TA98, TA1537 and TA1538 are frameshift tester strains. TA100 and TA102 are base-substitution tester strains. Upon receipt each strain was cultured under a variety of conditions to confirm the genotypes specific to the strains.
The first tests done with the strains were to determine the range of spontaneous reversion for each of the strains. With each mutagenicity experiment the spontaneous reversion of the tester strains to histidine independence was measured and expressed as the number of spontaneous revertants per plate. This served as the background controls.
For all experiments, the pre-incubation procedure was used. In this procedure one vial of each tester strain was thawed and 20 μL of this culture was added to 6 mL of Oxoid Nutrient Broth #2. This solution was allowed to shake for 10 hours at 37° C. In the pre-incubation procedure, 0.1 mL of this overnight culture was added to each of the required number of sterile test tubes. To half of the tubes 0.5 mL of a 10% S-9 solution containing Aroclor 1254 induced rat liver extract (Molecular Toxicology Inc., Annapolis, Md.), and MgCl2, KCl, glucose-6-phosphate, NADP, and sodium phosphate buffer (Sigma, St. Louis, Mo.) were added. To the other half of the tubes 0.5 mL of 0.2M sodium phospate buffer, pH 7.4, was used in place of the S-9 mixture (the -S9 samples). Finally 0.1 mL of the test solution containing either 0, 0.1, 0.5, 1, 5, 10, 50, 100, 250, or 500 μg/mL of the test compound was added. The 0.7 mL mixture was vortexed and then pre-incubated while shaking for 20 minutes at 37° C. After shaking, 2 mL of molten top agar supplemented with histidine and biotin were added to the 0.7 mL mixture and immediately poured onto a minimal glucose agar plate (volume of base agar was 20 mL). The top agar was allowed 30 minutes to solidify and then the plates were inverted and incubated for 44 hours at 37° C. After incubation the number of revertant colonies on each plate were counted. […] (“n” represents the number of replicates performed for each data point.)
Maron and Ames (1983) describe the conflicting views with regard to the statisical treatment of data generated from the test.
On the technique in general: In the Ames test, an excess of revertant colonies over the control signals mutagenicity.

Data set [4] deals with GMP-140 (p-selectin) on platelets. The data set can be described thus: Platelet function: GMP-140 expression (flow cytometry, CD62). It is filed as cell-based, human. To be noted: 100 μM compound, 5 Joules/cm^2, 5 days storage. The protocol: To measure the effects of the present compounds and methods of decontamination on platelet function using these four indicators, four samples were prepared for each compound tested, two control samples and two containing compound. Three units of human platelets were obtained from the Sacramento Blood Center, Sacramento, Calif. These were each transferred under sterile conditions to 50 ml centrifuge tubes, then aliquots of each unit were transferred into a second set of 50 ml sterile centrifuge tubes. To each centrifuge tube containing platelet concentrate (PC), an aliquot of compound stock was added to reach a final concentration of 100 μM of compound. […] The samples were pipetted gently up and down to mix. Then aliquots (either 3 ml or 8 ml) of each sample was transferred to two sterile Teflon™ Medi-bags™ (American Fluoroseal Co., Silver Springs, Md.) (presently owned by The West Company, Lionville, Pa.). Samples were treated in one of two different sized bags, having either 3 ml or 8 ml capacity. […] For each compound tested, two control samples without compound were prepared by again removing aliquots of platelet concentrate (17 ml if using an 8 ml bag, […] if using a 3 ml bag) from the same one of the first set of 50 ml centrifuge tubes from which the compound sample was drawn, and dividing into Medibags, as before. One of each pair of Medibags containing a compound, and one of each pair of control Medibags, were illuminated for 5 Joules/cm^2 on the device described in Example 1, above. Then all experimental and control Medibags were placed on a platelet shaker for storage for 5 days. The same experiments were repeated several times to obtain more statistically meaningful data, as represented by “n”, the number of data points represented, in the graphs of FIGS. 21-24, discussed below.

Structures are written as SMILES. Read-outs that look alike come from different tables or passages of the source.

In the case of `Cc1oc2c(C)c3oc(=O)cc(C)c3cc2c1COCCN` [Compound 2, 4′-(4-amino-2-oxa)butyl-4,5′,8-trimethylpsoralen], the revertants per plate in data set [1] (TA100 +S9, 5 μg/plate) was −18; in data set [1] (TA100 +S9, 10 μg/plate), 1; in data set [1] (TA100 +S9, 50 μg/plate), 115; in data set [1] (TA100 +S9, 100 μg/plate), 96; in data set [1] (TA100 −S9, 5 μg/plate) it was 103; in data set [1] (TA100 −S9, 10 μg/plate) it was 46. For the same molecule, the revertants per plate is 182 in data set [1] (TA100 −S9, 50 μg/plate); 121 in data set [1] (TA100 −S9, 100 μg/plate); −8 in data set [2] (TA1538 −S9, 5 μg/plate); −13 in data set [2] (TA1538 −S9, 10 μg/plate); 24 in data set [3] (TA98 +S9, 10 μg/plate); 35 in data set [3] (TA98 +S9, 50 μg/plate). The revertants per plate amounted to 53 in data set [3] (TA98 +S9, 100 μg/plate); 69 in data set [3] (TA98 +S9, 250 μg/plate); 63 in data set [3] (TA98 +S9, 500 μg/plate); 28 in data set [3] (TA98 −S9, 10 μg/plate); 52 in data set [3] (TA98 −S9, 50 μg/plate); 39 in data set [3] (TA98 −S9, 100 μg/plate). Besides, the revertants per plate in data set [3] (TA98 −S9, 250 μg/plate) came to 29; in data set [3] (TA98 −S9, 500 μg/plate), 6. Also, in data set [4], the “GMP-140 expression: sample treated with light and psoralen (PCD) versus day 5 untreated control (D5)” value was “little or no difference”.
Take `Cc1oc2c(C)c3oc(=O)cc(C)c3cc2c1CNCCCCN` [Compound 6, 4′-(6-amino-2-aza)hexyl-4,5′,8-trimethylpsoralen]: the revertants per plate in data set [1] (TA100 +S9, 5 μg/plate) is recorded as 12; in data set [1] (TA100 +S9, 10 μg/plate), −5; in data set [1] (TA100 +S9, 50 μg/plate), 24; in data set [1] (TA100 +S9, 100 μg/plate) it was −2; in data set [1] (TA100 +S9, 250 μg/plate), −38; in data set [2] (TA1538 −S9, 5 μg/plate), −5. Further, the revertants per plate in data set [2] (TA1538 −S9, 10 μg/plate) is listed as −2; in data set [3] (TA98 −S9, 10 μg/plate), 12; in data set [3] (TA98 −S9, 50 μg/plate), 12; in data set [3] (TA98 −S9, 100 μg/plate), 22; in data set [3] (TA98 −S9, 250 μg/plate) it was 12; in data set [3] (TA98 −S9, 500 μg/plate), 9. Besides, the “GMP-140 expression: sample treated with light and psoralen (PCD) versus day 5 untreated control (D5)” value in data set [4] is “little or no difference”.
